From patent US12351581B2, “Compounds for FGFR inhibition” (Cogent Biosciences, Inc., priority 2023, dated 2025)
Like-named read-outs stand apart in the source and are kept apart here.

Legend:
FGFR2-WT = FGFR2-WT (Homo sapiens, UniProt P21802); assay: Phosphorylated FGFR2-WT (pFGFR2-WT) cell assay, KATOIII cells; assay type: cell-based; conditions: 1 hour incubation, phospho FGFR2 HTRF
Description: KATOIII cells were grown in the appropriate growth medium, IMDM supplemented with 20% fetal bovine serum. Cells were seeded into a 384-well at 1×10^5 cells/25 μL/well. Cells were treated with compound using three-fold serial dilutions at final concentrations ranging from 10 μM to 0.5 nM. Compound was incubated on cells for 1 hour at 37° C., 5% CO2.
Following the 1-hour incubation with compounds, cell lysates were prepared and phospho FGFR2 was measured using the HTRF Phospho-FGFR2 (TYR653/654) Detection Kits (CisBio, cat #64FGFR2Y6PEG). 8 μL of cell lysis buffer (4×) supplied with 1× Phospho and Total protein blocking reagent (CisBio, cat #64FGFR2Y6PEG, CisBio, cat #64KB1AAC) was then added to the wells. Cells were incubated with lysis buffer for 40 minutes at 4° C. under shaking conditions. Plates were centrifuged at 1500 rpm for 3 min and then 16 μL of cell lysate was transferred from the cell-culture plate to a small volume detection plate with the added premixed antibody solutions (4 μL) (CisBio, cat #64FGFR2Y6PEG). Plates were centrifuged at 1000 rpm for 1 min then incubated at 25° C. for 120 min, then overnight at 4° C. Plates were read on the En Vision multimode plate reader via HTRF dual wavelength detection. One hundred percent of control (POC) was determined using DMSO treated samples, and 0 POC was determined using the top concentration of a control compound. A 4-parameter logistic curve was fit to the POC values as a function of compound concentration to determine the IC50 value.

FGFR2 N549H = biological target: T1, FGFR2 N549H (Homo sapiens, UniProt P21802, N549H); assay: FGFR mutant enzyme assay (HTRF KinEASE-TK); assay type: biochemical; conditions: ATP 0.9 uM
T1 construct: biochemical assays using purified intracellular domains of the respective isoforms; purchased Carna Bioscience 08-532
T1 sequence (P21802 399-821 N549H limits assumed): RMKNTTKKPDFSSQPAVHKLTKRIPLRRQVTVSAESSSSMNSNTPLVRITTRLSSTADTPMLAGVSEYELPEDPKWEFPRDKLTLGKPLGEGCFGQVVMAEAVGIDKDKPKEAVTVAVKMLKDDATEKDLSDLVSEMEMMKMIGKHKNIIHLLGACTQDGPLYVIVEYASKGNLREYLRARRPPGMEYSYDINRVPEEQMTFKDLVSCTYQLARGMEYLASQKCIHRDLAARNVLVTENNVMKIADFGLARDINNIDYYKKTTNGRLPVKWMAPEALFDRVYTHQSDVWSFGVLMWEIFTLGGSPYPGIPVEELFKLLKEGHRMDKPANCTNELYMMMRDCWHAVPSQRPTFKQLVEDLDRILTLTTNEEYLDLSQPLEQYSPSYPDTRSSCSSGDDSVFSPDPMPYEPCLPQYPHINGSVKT
Description: (§1) Activity against FGFR wild type and mutant enzymes were determined in biochemical assays using purified intracellular domains of the respective isoforms using HTRF KinEASE-TK assay technology from CisBio, now PerkinElmer. (Catalogue number 62TK0PEC). Briefly test compounds were tested in 11 point 1:3 serial dilutions, typical final concentration range from 10,000 nM to 0.17 nM. Test compounds were dissolved in DMSO and added to assay plates using acoustic transfer. Enzyme was pre-incubated with test compound for 30 minutes and the assay was initiated by addition of ATP and TK-peptide substrate. After 60 minutes at room temperature the reaction was quenched with detection reagent and incubated for an additional 60 minutes at room temperature. The plates were read using a multimode reader and the emission ratio of 665 nm to 615 nm was determined. This ratio was converted to percent of control (POC). [1-(high control-sample signal)/(high control-low control)]*100. Wells without compound were used to determine high control values and wells without enzyme were used to determine low control values. The POC values were fit using a four-parameter logistic model and the value where the fit curve was equal to 50 POC was reported as the IC50 using the Signals Vitro Vivo software package (PerkinElmer). Final assay conditions were: 50 mM HEPES pH7.5, 10 mM MgCl2, 1 mM EDTA, 0.01% Brij-35, 2 mM MnCl2, 1 mM DTT, and 0.5 uM TK-peptide. The enzyme source, catalogue number, final enzyme concentration, and final ATP concentration can be found in the tables 1-2 below.

FGFR2 V564I = biological target: T2, FGFR2 V564I (Homo sapiens, UniProt P21802, V564I); assay: FGFR mutant enzyme assay (HTRF KinEASE-TK); assay type: biochemical; conditions: ATP 0.4 uM
T2 construct: biochemical assays using purified intracellular domains of the respective isoforms; purchased Carna Bioscience 08-546
T2 sequence (P21802 399-821 V564I limits assumed): as the sequence (P21802 399-821 N549H limits assumed) above, with H151N, V166I counted along it
Description: as §1

FGFR2 V564F = biological target: T3, FGFR2 V564F (Homo sapiens, UniProt P21802, V564F); assay: FGFR mutant enzyme assay (HTRF KinEASE-TK); assay type: biochemical; conditions: ATP 1.5 uM
T3 construct: biochemical assays using purified intracellular domains of the respective isoforms; purchased SignalChem Biotech F05-12FG
T3 sequence (P21802 399-821 V564F limits assumed): as the sequence (P21802 399-821 N549H limits assumed) above, with H151N, V166F counted along it
Description: as §1

FGFR2 = biological target: T4, FGFR2 (Homo sapiens, UniProt P21802); assay: FGFR wild type enzyme assay (HTRF KinEASE-TK); assay type: biochemical; conditions: ATP 2 uM
T4 construct: biochemical assays using purified intracellular domains of the respective isoforms; purchased Carna Bioscience 08-134
T4 sequence (P21802 399-821 limits assumed): as the sequence (P21802 399-821 N549H limits assumed) above, with H151N counted along it
Description: as §1

[1] = compound table after the examples, read-out: Enz FGFR2

Sequence of FGFR2-WT (P21802 430-767 limits assumed): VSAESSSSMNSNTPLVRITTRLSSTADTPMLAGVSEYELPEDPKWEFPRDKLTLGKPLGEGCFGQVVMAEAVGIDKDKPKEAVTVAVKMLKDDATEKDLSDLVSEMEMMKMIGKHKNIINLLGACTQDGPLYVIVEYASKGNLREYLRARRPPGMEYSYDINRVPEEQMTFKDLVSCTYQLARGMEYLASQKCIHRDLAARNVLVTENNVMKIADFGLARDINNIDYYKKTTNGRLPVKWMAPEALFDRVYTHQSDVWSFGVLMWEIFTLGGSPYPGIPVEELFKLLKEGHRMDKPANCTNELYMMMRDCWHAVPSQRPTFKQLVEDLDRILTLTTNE

IC50 (FGFR2-WT) | IC50 (FGFR2 N549H) | IC50 (FGFR2 V564I) | IC50 (FGFR2 V564F) | IC50 (FGFR2; Table 3, read-out: FGFR2 Enz) | IC50 (FGFR2; [1]) | SMILES
1250 pM | 100 pM | 400 pM | 300 pM | 150 pM | 150 pM | C[C@H](O)C(=O)N1CCC(n2cc(-c3cc(O[C@H](C)c4ccc(F)cn4)c4c(C#N)cnn4c3)cn2)CC1 [Compound 19, 4-((R)-1-(5-fluoropyridin-2-yl)ethoxy)-6-(1-(1-((S)-2-hydroxypropanoyl)piperidin-4-yl)-1H-pyrazol-4-yl)pyrazolo[1,5-a]pyridine-3-carbonitrile]
2700 pM | 400 pM | 1400 pM | 1000 pM | 300 pM | 300 pM | Cc1c(-c2cc(O[C@H](C)c3ccc(F)cn3)c3c(C#N)cnn3c2)cnn1[C@H]1CC[C@](C)(O)CC1 [Compound 22, 4-((R)-1-(5-fluoropyridin-2-yl)ethoxy)-6-(1-((1r,4R)-4-hydroxy-4-methylcyclohexyl)-5-methyl-1H-pyrazol-4-yl)pyrazolo[1,5-a]pyridine-3-carbonitrile]
4000 pM | 600 pM | 2000 pM | 1000 pM | 400 pM | 400 pM | Cc1c(-c2cc(O[C@H](C)c3ccc(F)cn3)c3c(C#N)cnn3c2)cnn1[C@H]1CC[C@@](C)(O)CC1 [Compound 23, 4-((R)-1-(5-fluoropyridin-2-yl)ethoxy)-6-(1-((1s,4S)-4-hydroxy-4-methylcyclohexyl)-5-methyl-1H-pyrazol-4-yl)pyrazolo[1,5-a]pyridine-3-carbonitrile]
3000 pM | 250 pM | 1000 pM | 700 pM | 300 pM | 300 pM | C[C@@H](Oc1cc(-c2ccc(N3CC[C@@H](O)[C@@H](O)C3)nc2)cn2ncc(C#N)c12)c1ccc(F)cn1 [Compound 25, 6-(6-((3S,4R)-3,4-dihydroxypiperidin-1-yl)pyridin-3-yl)-4-((R)-1-(5-fluoropyridin-2-yl)ethoxy)pyrazolo[1,5-a]pyridine-3-carbonitrile]

More lines, now with the values behind:

SMILES | IC50 (FGFR2-WT) | IC50 (FGFR2 N549H) | IC50 (FGFR2 V564I) | IC50 (FGFR2 V564F) | IC50 (FGFR2; Table 3, read-out: FGFR2 Enz) | IC50 (FGFR2; [1])
Cc1c(-c2cc(O[C@H](C)c3ccc(F)cn3)c3c(C#N)cnn3c2)cnn1[C@H]1CCCN(C(=O)[C@H](C)O)C1 [Compound 18, 4-((R)-1-(5-fluoropyridin-2-yl)ethoxy)-6-(1-((S)-1-((S)-2-hydroxypropanoyl)piperidin-3-yl)-5-methyl-1H-pyrazol-4-yl)pyrazolo[1,5-a]pyridine-3-carbonitrile] | 4000 pM | 500 pM | 2000 pM | 1000 pM | 500 pM | 600 pM
Cc1c(-c2cc(O[C@H](C)c3ccc(F)cn3)c3c(C#N)cnn3c2)cnn1C [Compound 21, 6(R)-6-(1,5-dimethyl-1H-pyrazol-4-yl)-4-(1-(5-fluoropyridin-2-yl)ethoxy)pyrazolo[1,5-a]pyridine-3-carbonitrile] | 24000 pM | 3000 pM | 11000 pM | 6000 pM | 1700 pM | 1700 pM
C[C@@H](Oc1cc(-c2ccc(N3CCN(C)[C@@H](CO)C3)nc2)cn2ncc(C#N)c12)c1ccc(F)cn1 [Compound 24, 4-((R)-1-(5-fluoropyridin-2-yl)ethoxy)-6-(6-((R)-3-(hydroxymethyl)-4-methylpiperazin-1-yl)pyridin-3-yl)pyrazolo[1,5-a]pyridine-3-carbonitrile] | 3000 pM | 300 pM | 1000 pM | 1000 pM | 300 pM | 300 pM
C[C@@H](Oc1cc(-c2ccc(N3CC[C@H](O)[C@H](O)C3)nc2)cn2ncc(C#N)c12)c1ccc(F)cn1 [Compound 26, 6-(6-((3R,4S)-3,4-dihydroxypiperidin-1-yl)pyridin-3-yl)-4-((R)-1-(5-fluoropyridin-2-yl)ethoxy)pyrazolo[1,5-a]pyridine-3-carbonitrile] | 4000 pM | 300 pM | 1000 pM | 1000 pM | 500 pM | 500 pM
